In PubChem BioAssay AID720614 (Broad Institute, 2013) one finds caspase 3/7 activation, max activity and AC40 data, which are given here for 5 compounds.

Assay [1] can be described thus: caspase 3/7 activation in SNB19 cells, mechanism study for HRAS target identification, cell-based, luminescence, several timepoints, dry powder (AID 720614). The note with it: SNB19 (HRAS) caspase 3/7 apoptosis luminescence, multiple timepoints; for caspase 3/7 activation: at 35 µM (top of the series); for max activity: measured here: timepoint 3 max caspase activation, stronger effect = higher value.

For assay [2], the system named is SNB19 (HRAS) caspase 3/7 apoptosis luminescence, multiple timepoints. The description is as above.

Inconclusive results are not listed. Calls of active or inactive are those of the source. The rule behind the calls is not given here. Where only a bound is given, the exact number is not on record here.

Turning to `Cc1onc(C(=O)N2CCN(C(c3ccc(Cl)cc3)c3ccc(OCCOCCOCCNC(=O)OC(C)(C)C)cc3)CC2)c1[N+](=O)[O-]` (stereo unspecified), the caspase 3/7 activation in assay [1] is 12.2% (inactive). Further, the max activity in assay [1] (at 0.26 µM) worked out at 25.3%.

Regarding `CCC(=O)N(c1ccc(OC)c(Cl)c1)C(C(=O)NCCc1ccccc1)c1cccs1` (stereo unspecified), in assay [1], the caspase 3/7 activation was -10.3% (inactive). Further, the max activity in assay [1] (at 16 µM) amounted to 18.7%.

As to `CO[C@H]1C[C@@H]2CC[C@@H](C)[C@@](O)(O2)C(=O)C(=O)N2CCCC[C@H]2C(=O)O[C@H]([C@H](C)C[C@@H]2CC[C@@H](O)[C@H](OC)C2)CC(=O)[C@H](C)/C=C(\C)[C@@H](O)[C@@H](OC)C(=O)[C@H](C)C[C@H](C)/C=C/C=C/C=C/1C`, the AC40 in assay [2] (measured here: timepoint 2 caspase activation) is over 35 µM. The caspase 3/7 activation in assay [1] is 2.8% (inactive). In addition, the max activity in assay [1] (at 0.008 µM) came out at 32%.

Regarding `CC(C)(C)OC(=O)NCCOCCOCCOc1ccc(N(C(=O)CCl)C(C(=O)NCCc2ccccc2)c2cccs2)cc1Cl` (stereo unspecified), the AC40 in assay [2] was > 35 µM (inactive). Moreover, the max activity in assay [1] (at 0.5 µM) stood at 18.7%.

With `Cc1onc(C(=O)N2CCN(C(c3ccc(Cl)cc3)c3ccc(Cl)cc3)CC2)c1[N+](=O)[O-]`, in assay [1], the caspase 3/7 activation is 12.2% (inactive). Further, the max activity in assay [1] (at 16 µM) is -17.3%.
